Data: US12337005B2, “Methods of treating thrombosis” (UNIVERSITY OF IOWA RESEARCH FOUNDATION, priority 2020, dated 2025)

Assays:
human platelets = assay: ATP secretion from dense granules, human platelets; type: cell-based; details: stimulus-activated human platelets pretreated with ML265
Method: Platelet rich plasma (PRP) or washed platelets (2×10^8/ml) treated with vehicle (DMSO) or ML265 (50 and 100 μM) were stirred (1200 rpm) at 37° C. for 2 min in a whole blood/optical lumi-aggregometer (Chrono-log; model 700-2) before the addition of agonists (convulxin, collagen, thrombin, PAR4, TRAP (PAR1 agonist) or adenosine diphosphate [ADP]). Aggregation was measured as percent change in light transmission, where 100% refers to transmittance through the blank sample (PRP/Buffer). Platelet dense granule secretion was determined by measuring the release of ATP using luciferin-luciferase reagent. To examine the effect of ML265 on ATP secretion, washed platelets were pretreated with vehicle (DMSO) or ML265 (50 and 100 μM) for 10 minutes before stimulation with various agonists. ATP release was performed in a lumi-aggregometer (Chrono-log; model 700-2) at 37° C.

murine platelets = assay: Clot retraction, mouse platelet-rich plasma; type: cell-based; details: thrombin 0.25 U/ml, ML265 50 and 100 μM
Method: To measure thrombin-stimulated fibrin clot retraction PRP was treated with ML265 (50 and 100 μM) or vehicle control (DMSO) for 10 minutes. Tyrode buffer was added to test tubes, along with red blood cells, to allow visualization of the clot. This was followed by the addition of PRP. Clot formation was initiated by adding thrombin (final concentration 0.25 U/ml) to the test tubes. Photographs were taken every 15 minutes and the assay was terminated after 60 minutes at which time the clot in the vehicle-treated samples were seen to have retracted completely. Clot area was analyzed using Image J software from NIH (Bethesda, MD, USA).

mouse whole blood = assay: Bioflux flow chamber assay, mouse whole blood on collagen; type: cell-based; details: ML265 150 μM
Method: In vitro thrombosis assays were performed using BioFlux™ 200 (Fluxion Biosciences, USA) microfluidics flow chamber (Nayak et al., 2018). The channels were coated with Type I collagen (100 μg/ml) for one hour at room temperature and then blocked with 0.5% BSA for 30 minutes. Platelets were isolated from citrated whole blood as described above, washed, labeled with the fluorescent dye (calcein AM; 2 μM) and were reconstituted back with PPP and remaining blood containing leukocytes and RBC. The whole blood pretreated with ML265 or vehicle (DMSO) was perfused over the collagen-coated plate at shear stress 1500 s^−1 for 5 minutes. Experiments were performed in triplicates using whole blood from human and mice. The fluorescently labeled platelets/thrombi on the collagen-coated surface were analyzed using ImageJ software from NIH (Bethesda, MD, USA).

[1] = system: male wild-type mice on C57B16/J background; assay: FeCl3 injury-induced carotid artery thrombosis; type: in vivo, mouse
Method: (§1) Initially ML265 dissolved in DMSO was mixed with 200 μl of deionized water and administered intra-peritoneally to the at a dose of 25 and 50-mg/Kg body weight. In vivo thrombosis and tail transection assays were performed 10 minutes after administration of ML265 or vehicle infusion by a person who was blinded to the drug and vehicle infusion.
Thrombus formation in the carotid artery after the FeCl3 injury was assessed by intravital microscopy. Briefly, 8-10 weeks old mice were anesthetized using 100-mg/kg ketamine and 10-mg/kg xylazine. Platelets labeled with calcein green (2.5×10^9 platelets per kg) were infused through the retro-orbital plexus. The common carotid artery was carefully exposed and kept moist by super-fusion with warm (˜37° C.) saline. Whatman paper (0.5×1.5 mm) saturated with ferric chloride (5%) solution was applied topically for 1.5 minutes for male and 2 mins for female mice, and thrombus formation in the injured carotid vessel was monitored in real time using a Nikon upright microscope (Plan Fluor 4×/0.2 objective), and thrombus growth overtime was recorded using a high-speed electron-multiplying camera for 40 minutes or until occlusion occurred. The time to form occlusive thrombus was considered as the time required for blood to stop flowing completely for >1 minute. Videos were evaluated off-line using a Nikon computer-assisted image analysis program.

male mice = assay: Tail bleeding assay; type: in vivo, mouse; details: male mice pretreated with ML265
Method: as §1
Tail-transection bleeding time was measured. Briefly, mice (approximately 8 weeks of age) were anesthetized with 100-mg/kg ketamine and 10-mg/kg xylazine and placed on a heating pad warmed at 37° C., and a 3 mm segment of the tail was amputated with a sharp scalpel blade. The tail was immediately immersed in saline (at 37° C.), and the time taken for the stream of blood to stop for more than 30 seconds was defined as the bleeding time.

[2] = system: male obese mice (fed a high-fat diet for 4 months); assay: FeCl3-injury induced carotid artery thrombosis in obese mice; type: in vivo, mouse; details: 5.0% FeCl3 injury, infused with ML265
Excerpt: FIGS. 16A-16D. ML265 inhibits platelet aggregation and arterial thrombosis in pre-existing comorbid condition of obesity. Wild-type (C57BL6/J) mice fed a chow and high-fat diet (Cat #TD.06414, Envigo, 60% Kcal from fat) for 4 months. (A) Blood glucose levels (B) Blood glucose levels during the insulin tolerance test. Statistics (A & B): Two-way ANOVA with Tukey's multiple comparisons test (*P<0.05, **P<0.01, ***P<0.001, ****P<0.0001; n=10 mice/group). (C) Platelet rich plasma or washed platelets from obese mice were pretreated with vehicle or ML265 and stimulated with agonists including collagen (1 μg/mL) and thrombin (0.02 U/mL). The results are represented as percent change light transmission after subtracting the blank (platelet poor plasma/Tyrode's buffer). […]
Thrombus formation in the carotid artery after the FeCl3 injury was assessed by intravital microscopy. […] Whatman paper (0.5×1.5 mm) saturated with ferric chloride (5%) solution was applied topically for 1.5 minutes for male and 2 mins for female mice, and thrombus formation in the injured carotid vessel was monitored in real time using a Nikon upright microscope (Plan Fluor 4×/0.2 objective), and thrombus growth overtime was recorded using a high-speed electron-multiplying camera for 40 minutes or until occlusion occurred. […] Videos were evaluated off-line using a Nikon computer-assisted image analysis program.

Question: For `Cn1c2cc([S+](C)[O-])sc2c2cnn(Cc3cccc(N)c3)c(=O)c21` (stereo not drawn) [ML265, 6-[(3-aminophenyl)methyl]-4,6-dihydro-4-methyl-2-(methylsulfinyl)-5H-thieno[2′,3′:4,5]pyrrolo[2,3-d]pyridazine-5-one], which “dense-granule secretion (ATP release)” value (human platelets) is on record?
Answer: significant decrease

Question: And the clot retraction (murine platelets)?
Answer: significant decrease

Question: And the “thrombus growth rate vs vehicle control” value (mouse whole blood; collagen, 1500 s-1)?
Answer: marked reduction

Question: And the “percent of the area covered by platelets vs vehicle control” value (mouse whole blood; collagen, 1500 s-1, 5 minutes)?
Answer: marked reduction

Question: What about the “rate of thrombus growth (slope over time)” value (mouse whole blood; vehicle slope 236.1) of the same compound?
Answer: 61.65

Question: What about the “mice that did not occlude” value ([1]; ML265-pretreated wild-type mice) of the same compound?
Answer: 50%

Question: What about the “time to occlusion, a large number of ML265 pre-treated mice (did not occlude)” value ([1]; control group approximately 20 mins) of the same compound?
Answer: > 40 min

Question: And the “rate of thrombus growth (slope over time)” value ([1]; male mice pretreated with ML265, 5% FeCl3, vehicle slope 4.862)?
Answer: 1.531

Question: What about the “time to complete vessel occlusion vs vehicle” value ([1]; male wild-type mice pretreated with ML265) of the same compound?
Answer: significantly prolonged

Question: What about the “reduction in the extent of thrombus growth vs vehicle” value ([1]; male wild-type mice, ML265 i.p. 10 minutes before 5% FeCl3 injury) of the same compound?
Answer: ~4 fold

Question: And the “mean time to cessation of bleeding (tail-transection bleeding time) vs vehicle” value (male mice)?
Answer: comparable

Question: What about the “arterial thrombosis in pre-existing comorbid condition of obesity” value [2] of the same compound?
Answer: inhibited
